What was measured:
Test in all cases: drug sensitivity score (DSS2, normalised partial AUC of dose-response, 72 h CellTiter-Glo viability) (DSS (dimensionless)); higher = more sensitive (stronger growth inhibition / cytotoxicity); extreme values may be limits of the assay
CAF#3 = system: CAF#3 (primary prostate cancer-associated fibroblasts of myCAF-like type)
How it was run: (§1)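 Low-passage primary prostate cancer-associated fibroblasts, PF179T, WPMY-1, LNCaP and 22Rv1 cells were seeded into 384-well plates carrying pre-dispensed compounds at five doses covering a 10,000-fold range. After 72 h, viability was read by CellTiter-Glo 2.0 luminescence. Responses were scaled to vehicle and positive-control wells. The drug sensitivity score (DSS2) is a partial area under the fitted logistic dose–response curve divided by the log of its upper asymptote, computed in BREEZE; higher means more sensitive.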

CAF#4 = system: CAF#4 (primary prostate cancer-associated fibroblasts of iCAF-like type)
How it was run: as §1

CAF#2 = system: CAF#2 (primary prostate cancer-associated fibroblasts of iCAF-like type)
How it was run: as §1

22Rv1 = system: 22Rv1
How it was run: as §1

CAF#7 = system: CAF#7 (primary prostate cancer-associated fibroblasts of myCAF-like type)
How it was run: as §1

CAF#6 = system: CAF#6 (primary prostate cancer-associated fibroblasts of iCAF-like type)
How it was run: as §1

CAF#5 = system: CAF#5 (primary prostate cancer-associated fibroblasts of myCAF-like type)
How it was run: as §1

CAF#1 = system: CAF#1 (primary prostate cancer-associated fibroblasts of myCAF-like type)
How it was run: as §1

PF179T = system: PF179T
How it was run: as §1

WPMY-1 = system: WPMY-1
How it was run: as §1

LNCAP = system: LNCAP
How it was run: as §1

With `CC(=O)[C@]1(O)Cc2c(O)c3c(c(O)c2[C@@H](O[C@H]2C[C@H](N)[C@H](O)[C@H](C)O2)C1)C(=O)c1ccccc1C3=O` [Idarubicin] (tested concentration range 0.1-1000 nM) the drug sensitivity score (CAF#3) was 4.4, the drug sensitivity score (CAF#4) was 7.5 and the drug sensitivity score (CAF#2) was 12.1. It also gave a drug sensitivity score (22Rv1) of 12.9, a drug sensitivity score (CAF#7) of 9.3 and a drug sensitivity score (CAF#6) of 8.5. For the same compound, the drug sensitivity score (CAF#5) was 7.9, the drug sensitivity score (CAF#1) was 7.6 and the drug sensitivity score (PF179T) was 12.5. It also gave a drug sensitivity score (WPMY-1) of 16.4 and a drug sensitivity score (LNCAP) of 19.9.
`CCS(=O)(=O)N1CCN(c2ccc(Nc3ncc(C(N)=O)c(NC4CC4)n3)cc2)CC1` [Cerdulatinib] (tested concentration range 1-10000 nM) showed a drug sensitivity score (CAF#3) of 0, a drug sensitivity score (CAF#4) of 0 and a drug sensitivity score (CAF#2) of 3.7. It also gave a drug sensitivity score (22Rv1) of 0, a drug sensitivity score (CAF#7) of 0.1 and a drug sensitivity score (CAF#6) of 0.4. It also gave a drug sensitivity score (CAF#5) of 3.8, a drug sensitivity score (CAF#1) of 6.1 and a drug sensitivity score (PF179T) of 2.7. The drug sensitivity score (WPMY-1) was 8.8 and the drug sensitivity score (LNCAP) was 4.4.
Compound `CC(C)c1c(C(=O)Nc2ccccc2)c(-c2ccccc2)c(-c2ccc(F)cc2)n1CC[C@@H](O)C[C@@H](O)CC(=O)O` [Atorvastatin] (tested concentration range 1-10000 nM) has a drug sensitivity score (CAF#3) of 6.1, a drug sensitivity score (CAF#4) of 3.5 and a drug sensitivity score (CAF#2) of 8.4. The drug sensitivity score (22Rv1) was 3.3, the drug sensitivity score (CAF#7) was 5.9 and the drug sensitivity score (CAF#6) was 5.2. It also gave a drug sensitivity score (CAF#5) of 5.4, a drug sensitivity score (CAF#1) of 4.7 and a drug sensitivity score (PF179T) of 3. For the same compound, the drug sensitivity score (WPMY-1) was 2.7 and the drug sensitivity score (LNCAP) was 1.1.
`CC(C)(C)c1nc(-c2cccc(NS(=O)(=O)c3c(F)cccc3F)c2F)c(-c2ccnc(N)n2)s1` [Dabrafenib] (tested concentration range 0.2-2500 nM) showed a drug sensitivity score (CAF#3) of 4.5, a drug sensitivity score (CAF#4) of 0 and a drug sensitivity score (CAF#2) of 0.2. For the same compound, the drug sensitivity score (22Rv1) was 5.6, the drug sensitivity score (CAF#7) was 4.1 and the drug sensitivity score (CAF#6) was 2.6. It also gave a drug sensitivity score (CAF#5) of 3.5, a drug sensitivity score (CAF#1) of 1.4 and a drug sensitivity score (PF179T) of 2.1. It also gave a drug sensitivity score (WPMY-1) of 0 and a drug sensitivity score (LNCAP) of 4.8.
Compound `COc1cc(N2CCC(N3CCN(C)CC3)CC2)ccc1Nc1ncc(Cl)c(Nc2ccccc2P(C)(C)=O)n1` [Brigatinib] (tested concentration range 0.1-1000 nM) has a drug sensitivity score (CAF#3) of 3.1, a drug sensitivity score (CAF#4) of 2.1 and a drug sensitivity score (CAF#2) of 3.5. For the same compound, the drug sensitivity score (22Rv1) was 1.7, the drug sensitivity score (CAF#7) was 3 and the drug sensitivity score (CAF#6) was 3.9. It also gave a drug sensitivity score (CAF#5) of 3.6, a drug sensitivity score (CAF#1) of 4 and a drug sensitivity score (PF179T) of 2.2. The drug sensitivity score (WPMY-1) was 2.4 and the drug sensitivity score (LNCAP) was 0.
With `C[C@H]1O[C@@H](O[C@H]2[C@@H](O)C[C@H](O[C@H]3[C@@H](O)C[C@H](O[C@H]4CC[C@@]5(C)[C@H](CC[C@@H]6[C@@H]5C[C@@H](O)[C@]5(C)[C@@H](C7=CC(=O)OC7)CC[C@]65O)C4)O[C@@H]3C)O[C@@H]2C)C[C@H](O)[C@@H]1O` [Digoxin] (tested concentration range 0.1-1000 nM) the drug sensitivity score (CAF#3) was 8.7, the drug sensitivity score (CAF#4) was 19.4 and the drug sensitivity score (CAF#2) was 13.8. It also gave a drug sensitivity score (22Rv1) of 14.4, a drug sensitivity score (CAF#7) of 11.2 and a drug sensitivity score (CAF#6) of 10.8. It also gave a drug sensitivity score (CAF#5) of 13.4, a drug sensitivity score (CAF#1) of 10.2 and a drug sensitivity score (PF179T) of 13.6. It also gave a drug sensitivity score (WPMY-1) of 14.7 and a drug sensitivity score (LNCAP) of 12.
For `C[C@@H]1CN(Cc2ccc(F)cc2)[C@@H](C)CN1C(=O)c1cc2c(C(=O)C(=O)N(C)C)cn(C)c2cc1Cl` [Talmapimod] (tested concentration range 1-10000 nM), the drug sensitivity score (CAF#3) was 0, the drug sensitivity score (CAF#4) was 0 and the drug sensitivity score (CAF#2) was 0. It also gave a drug sensitivity score (22Rv1) of 0, a drug sensitivity score (CAF#7) of 0 and a drug sensitivity score (CAF#6) of 0. The drug sensitivity score (CAF#5) was 0, the drug sensitivity score (CAF#1) was 0 and the drug sensitivity score (PF179T) was 0. It also gave a drug sensitivity score (WPMY-1) of 0 and a drug sensitivity score (LNCAP) of 1.9.
`C=C1C[C@@H]2CC[C@@]34C[C@H]5O[C@H]6[C@@H](O3)[C@H]3O[C@H](CC[C@@H]3O[C@H]6[C@H]5O4)CC(=O)C[C@@H]3[C@@H](OC)[C@@H](C[C@H](O)CN)O[C@H]3C[C@H]3O[C@@H](CC[C@@H]1O2)C[C@@H](C)C3=C` [Eribulin] (tested concentration range 0.1-1000 nM) was tested, and the drug sensitivity score (CAF#3) was 11.8, the drug sensitivity score (CAF#4) was 9.6 and the drug sensitivity score (CAF#2) was 18.3. For the same compound, the drug sensitivity score (22Rv1) was 24, the drug sensitivity score (CAF#7) was 22.1 and the drug sensitivity score (CAF#6) was 15.3. The drug sensitivity score (CAF#5) was 13.7, the drug sensitivity score (CAF#1) was 12.3 and the drug sensitivity score (PF179T) was 19.4. For the same compound, the drug sensitivity score (WPMY-1) was 28.9 and the drug sensitivity score (LNCAP) was 36.5.
In the case of `Cc1nc2cccc(N)c2c(=O)n1C1CCC(=O)NC1=O` (configuration not stated) [Avadomide] (tested concentration range 1-10000 nM), the drug sensitivity score (CAF#3) is reported as 0.4, the drug sensitivity score (CAF#4) is reported as 2.2 and the drug sensitivity score (CAF#2) is reported as 0. It also gave a drug sensitivity score (22Rv1) of 0, a drug sensitivity score (CAF#7) of 0 and a drug sensitivity score (CAF#6) of 0. It also gave a drug sensitivity score (CAF#5) of 0, a drug sensitivity score (CAF#1) of 0 and a drug sensitivity score (PF179T) of 0.1. For the same compound, the drug sensitivity score (WPMY-1) was 0 and the drug sensitivity score (LNCAP) was 0.
`CC[C@@H](C(=O)[C@@H](C)[C@@H](O)[C@H](C)[C@@H]1O[C@@H]([C@@H](CC)C(=O)O)CC[C@@H]1C)[C@H]1O[C@]2(C=C[C@@H](O)[C@]3(CC[C@@](C)([C@H]4CC[C@](O)(CC)[C@H](C)O4)O3)O2)[C@H](C)C[C@@H]1C` [Salinomycin] (tested concentration range 5-50000 nM) showed a drug sensitivity score (CAF#3) of 9.4, a drug sensitivity score (CAF#4) of 25.2 and a drug sensitivity score (CAF#2) of 26.5. The drug sensitivity score (22Rv1) was 26.4, the drug sensitivity score (CAF#7) was 18.5 and the drug sensitivity score (CAF#6) was 21.2. It also gave a drug sensitivity score (CAF#5) of 23.6, a drug sensitivity score (CAF#1) of 26.8 and a drug sensitivity score (PF179T) of 19.1. For the same compound, the drug sensitivity score (WPMY-1) was 28.8 and the drug sensitivity score (LNCAP) was 29.1.
`CCN(CC)CCOc1ccc(C(=C(Cl)c2ccccc2)c2ccccc2)cc1` [Clomifene] (tested concentration range 1-10000 nM) gave a drug sensitivity score (CAF#3) of 4.2, a drug sensitivity score (CAF#4) of 4 and a drug sensitivity score (CAF#2) of 5.8. The drug sensitivity score (22Rv1) was 5.7, the drug sensitivity score (CAF#7) was 3.7 and the drug sensitivity score (CAF#6) was 4. For the same compound, the drug sensitivity score (CAF#5) was 3.7, the drug sensitivity score (CAF#1) was 2.3 and the drug sensitivity score (PF179T) was 6. It also gave a drug sensitivity score (WPMY-1) of 5.5 and a drug sensitivity score (LNCAP) of 4.8.
For `O=C(/C=C/c1cccc(S(=O)(=O)Nc2ccccc2)c1)NO` [Belinostat] (tested concentration range 1-10000 nM), the drug sensitivity score (CAF#3) was 4.8, the drug sensitivity score (CAF#4) was 10 and the drug sensitivity score (CAF#2) was 12.3. The drug sensitivity score (22Rv1) was 19.6, the drug sensitivity score (CAF#7) was 6.6 and the drug sensitivity score (CAF#6) was 6.8. For the same compound, the drug sensitivity score (CAF#5) was 8.6, the drug sensitivity score (CAF#1) was 10 and the drug sensitivity score (PF179T) was 9.8. For the same compound, the drug sensitivity score (WPMY-1) was 18.5 and the drug sensitivity score (LNCAP) was 19.5.

Source: the supplement of paper PMC12592484
